Test results published in PubChem BioAssay (NCI).
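How tested: cells in 96-well plates exposed to compound for 48 hours at five concentrations. The concentration for full growth arrest is given as TGI.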

Assays:
Assay in all cases: DTP human tumour cell line panel, 48 h
MDA-MB-231 breast = system: MDA-MB-231 breast
SR leukemia = system: SR leukemia
SK-OV-3 ovarian = system: SK-OV-3 ovarian
SF-539 CNS = system: SF-539 CNS
RPMI-8226 leukemia = system: RPMI-8226 leukemia
TK-10 renal = system: TK-10 renal
NCI-H226 lung = system: NCI-H226 lung

SMILES	TGI (MDA-MB-231 breast)	TGI (SR leukemia)	TGI (SK-OV-3 ovarian)	TGI (SF-539 CNS)	TGI (RPMI-8226 leukemia)	TGI (TK-10 renal)	TGI (NCI-H226 lung)
COc1cc(N(CCC#N)CCC#N)ccc1/C(N=Nc1ccccc1)=N/NC(=O)c1cc(Br)ccc1O	62.6 µM	43.7 µM	> 100 µM	83.7 µM	44.6 µM	> 100 µM	> 100 µM
COc1cc2cc(C(=O)N3CC(CCl)c4ccccc43)[nH]c2c(OC)c1OC (stereo not drawn)	> 100 µM	> 100 µM	> 100 µM	> 100 µM	> 100 µM	> 100 µM	> 100 µM
CCc1c(Cc2cc(C)cc(C)c2)n2c(nc1=O)SCC2CBr (stereo not drawn)	> 50 µM	> 50 µM	–	> 50 µM	> 50 µM	> 50 µM	> 50 µM
CCS(=O)(=O)CCn1cnc2c1c(=O)n(C)c(=O)n2C	> 100 µM	–	–	> 100 µM	–	> 100 µM	> 100 µM
CC(C)NCCC(O)c1cc2ccccc2o1 (stereo not drawn)	> 100 µM	–	> 100 µM	> 100 µM	> 100 µM	> 100 µM	> 100 µM
C=CC[C@@]1(C)CCCCCCCCC[C@@](C)(CC=C)C1=O	80.9 µM	63.7 µM	> 100 µM	> 100 µM	66.7 µM	> 100 µM	48.4 µM
COC(=O)c1ccccc1/C=C1\Cc2cc(C)c(C)cc2C1=O	–	> 100 µM	–	> 100 µM	> 100 µM	86.6 µM	> 100 µM
CC#CCCN(CC#N)Cc1ccccc1	> 100 µM	> 100 µM	> 100 µM	–	> 100 µM	> 100 µM	> 100 µM
COC(=O)[C@@H]1C[C@H]([Se]c2ccccc2)CN1C(=O)OCc1ccccc1	> 100 µM	> 100 µM	> 100 µM	> 100 µM	71.8 µM	> 100 µM	> 100 µM
O=C(/C=C/c1ccc(O)c(O)c1O)OCCc1ccccc1	47.3 µM	40.6 µM	> 100 µM	70.7 µM	52.6 µM	> 100 µM	97.9 µM
O=C1NC(N2CCCC(CO)C2)=N/C1=C\c1ccc(Cl)cc1 (stereo not drawn)	> 100 µM	> 100 µM	> 100 µM	> 100 µM	> 100 µM	> 100 µM	> 100 µM
CN(C)C(=O)Oc1ccc(-c2cn3cc(NC(=O)c4ccccc4)ccc3n2)cc1	> 100 µM	> 100 µM	> 100 µM	> 100 µM	> 100 µM	> 100 µM	> 100 µM
COc1cc2c(cc1OC)C(N)CC2=O (stereo not drawn)	> 100 µM	> 100 µM	> 100 µM	> 100 µM	> 100 µM	> 100 µM	> 100 µM
